For one experiment, the target named is JH2 domain of human Tyk2 (Homo sapiens (Human), UniProt P29597). As to the kind of experiment: JH2 Biochemical Assay (TR-FRET probe displacement). It counts as binding. (In general: Time-resolved FRET reads energy transfer from a long-lived donor to a nearby acceptor.)
The target in the next experiment is Tyk2 (Homo sapiens (Human), UniProt P29597). As to the kind of experiment: pSTAT4 Cell Assay (MSD, NK92 cells). It counts as cell-based.
The mark [1] stands for this setting: JH2 domain of human Tyk2, TR-FRET probe displacement.
[2] abbreviates: TR-FRET probe displacement, JH2 domain.

The structures appear in SMILES notation. pIC50: −log10 of the molar value. Where two headings read alike, the source gives them in different places. Some results are limits rather than exact numbers.

Tyk2, sequence (P29597 whole entry, the tested form may be a part): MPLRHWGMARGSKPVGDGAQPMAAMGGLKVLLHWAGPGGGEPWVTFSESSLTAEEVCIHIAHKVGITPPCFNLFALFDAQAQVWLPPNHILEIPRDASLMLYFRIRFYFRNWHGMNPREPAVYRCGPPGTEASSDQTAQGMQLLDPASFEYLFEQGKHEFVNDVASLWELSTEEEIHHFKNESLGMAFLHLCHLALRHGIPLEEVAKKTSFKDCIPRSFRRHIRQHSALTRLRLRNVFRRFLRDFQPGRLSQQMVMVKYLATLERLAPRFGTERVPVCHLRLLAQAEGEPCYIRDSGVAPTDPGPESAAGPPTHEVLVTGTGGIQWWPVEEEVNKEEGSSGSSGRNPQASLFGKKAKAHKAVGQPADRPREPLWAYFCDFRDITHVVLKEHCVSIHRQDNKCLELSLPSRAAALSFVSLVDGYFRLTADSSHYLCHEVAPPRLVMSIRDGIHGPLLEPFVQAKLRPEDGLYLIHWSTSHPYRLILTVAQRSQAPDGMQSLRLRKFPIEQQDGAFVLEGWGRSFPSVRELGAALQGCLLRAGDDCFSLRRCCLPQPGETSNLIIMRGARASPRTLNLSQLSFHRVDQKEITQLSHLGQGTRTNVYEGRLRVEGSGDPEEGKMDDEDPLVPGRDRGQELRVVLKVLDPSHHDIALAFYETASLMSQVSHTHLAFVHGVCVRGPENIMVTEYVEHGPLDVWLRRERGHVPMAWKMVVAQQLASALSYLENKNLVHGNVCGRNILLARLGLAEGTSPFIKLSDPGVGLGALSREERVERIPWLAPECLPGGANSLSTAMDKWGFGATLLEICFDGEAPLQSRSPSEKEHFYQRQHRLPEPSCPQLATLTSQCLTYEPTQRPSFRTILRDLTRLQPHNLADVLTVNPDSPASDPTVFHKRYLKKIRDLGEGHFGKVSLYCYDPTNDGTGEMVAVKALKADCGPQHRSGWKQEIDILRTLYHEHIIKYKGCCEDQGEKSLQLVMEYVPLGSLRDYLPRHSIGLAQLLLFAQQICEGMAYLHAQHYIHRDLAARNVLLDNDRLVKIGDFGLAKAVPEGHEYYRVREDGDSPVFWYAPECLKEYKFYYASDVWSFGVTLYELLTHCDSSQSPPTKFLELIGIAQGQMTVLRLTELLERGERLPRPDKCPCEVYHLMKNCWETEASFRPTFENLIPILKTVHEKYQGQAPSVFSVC
JH2 domain of human Tyk2, sequence (P29597 575-876): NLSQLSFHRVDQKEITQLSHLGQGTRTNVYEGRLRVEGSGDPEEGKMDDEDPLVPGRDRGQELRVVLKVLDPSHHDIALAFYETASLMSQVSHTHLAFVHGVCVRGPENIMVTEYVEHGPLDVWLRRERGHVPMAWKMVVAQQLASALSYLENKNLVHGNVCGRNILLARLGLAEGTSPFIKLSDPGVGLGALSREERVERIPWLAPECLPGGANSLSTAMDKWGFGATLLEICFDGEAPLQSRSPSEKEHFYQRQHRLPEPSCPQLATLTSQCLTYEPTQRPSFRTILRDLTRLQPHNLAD

For orientation: pIC50 means the IC50 on a negative log10 scale, so that one unit is a factor of ten. For the molecule `CC(=O)Nc1cc(Nc2ccnc(C(C)(F)F)n2)c(-c2cc3n(n2)CCN(CC#N)C3)cn1` [Example 736, N-(5-(5-(cyanomethyl)-4,5,6,7-tetrahydropyrazolo[1,5-a]pyrazin-2-yl)-4-((2-(1,1-difluoroethyl)pyrimidin-4-yl)amino)pyridin-2-yl)acetamide], the pIC50 on JH2 domain of human Tyk2 (setting [1]) and at Tyk2 (MSD) was not below 8.00 each time.
On to `CC(=O)Nc1cc(Nc2cc(C)nc(C(C)(F)F)n2)c(-c2ncc(CN(C)C)s2)cn1` [Example 737, N-(4-((2-(1,1-difluoroethyl)-6-methylpyrimidin-4-yl)amino)-5-(5-((dimethylamino)methyl)thiazol-2-yl)pyridin-2-yl)acetamide], for which the negative-log IC50 (pIC50) at JH2 domain of human Tyk2 (setting [1]) and at Tyk2 (MSD) was not below 8.00 in each case.
For the molecule `CC(=O)Nc1cc(Nc2cc(C)nc(C(C)(F)F)n2)c(-c2ncc(CN3CCCC3)s2)cn1` [Example 738, N-(4-((2-(1,1-difluoroethyl)-6-methylpyrimidin-4-yl)amino)-5-(5-(pyrrolidin-1-ylmethyl)thiazol-2-yl)pyridin-2-yl)acetamide], the pIC50 on JH2 domain of human Tyk2 (setting [1]) and at Tyk2 (MSD) was not below 8.00 each time.
On to `CC(=O)Nc1cc(Nc2cc(C)nc(C(C)(F)F)n2)c(-c2cc(CN(C)C)ccn2)cn1` [Example 740, N-(4′-((2-(1,1-difluoroethyl)-6-methylpyrimidin-4-yl)amino)-4-((dimethylamino)methyl)-[2,3′-bipyridin]-6′-yl)acetamide], for which the negative logarithm of the IC50 (pIC50) at JH2 domain of human Tyk2 (setting [1]) and at Tyk2 (MSD) was not below 8.00 throughout.
In the case of `CC(=O)Nc1cc(Nc2cc(C)nc(C(C)(F)F)n2)c(-c2cnc(C(C)N(C)C)cn2)cn1` (stereo not drawn) [Example 741, N-(4-((2-(1,1-difluoroethyl)-6-methylpyrimidin-4-yl)amino)-5-(5-(1-(dimethylamino)ethyl)pyrazin-2-yl)pyridin-2-yl)acetamide], the pIC50 at JH2 domain of human Tyk2 (setting [1]) and against Tyk2 (MSD) was not below 8.00 throughout.
With `CC(=O)Nc1cc(Nc2cc(C)nc(C(C)(F)F)n2)c(-c2cc(C(C)N(C)C)ccn2)cn1` (stereo not drawn) [Example 743, N-(4′-((2-(1,1-difluoroethyl)-6-methylpyrimidin-4-yl)amino)-4-(1-(dimethylamino)ethyl)-[2,3′-bipyridin]-6′-yl)acetamide], the pIC50 was not below 8.00 on JH2 domain of human Tyk2 (setting [1]) and 7.00 to 8.00 at Tyk2 (MSD).
With `COCCc1cc(-c2cnc(NC(C)=O)cc2Nc2cc(C)nc(C(C)(F)F)n2)ncn1` [Example 745, N-(4-((2-(1,1-difluoroethyl)-6-methylpyrimidin-4-yl)amino)-5-(6-(2-methoxyethyl)pyrimidin-4-yl)pyridin-2-yl)acetamide], the pIC50 is not below 8.00 at JH2 domain of human Tyk2 (setting [1]) and 7.00 to 8.00 on Tyk2 (MSD).
For `COc1ccc(-c2cnc(NC(C)=O)cc2Nc2cc(C)nc(C34COC(C3)C4)n2)nn1` [Example 749, N-(4-((2-(2-oxabicyclo[2.1.1]hexan-4-yl)-6-methylpyrimidin-4-yl)amino)-5-(6-methoxypyridazin-3-yl)pyridin-2-yl)acetamide], the pIC50 at JH2 domain of human Tyk2 (setting [2]) was not below 8.00; against Tyk2 it was 7.00 to 8.00.
Turning to `COc1cc(-c2cnc(NC(C)=O)cc2Nc2cc(C)nc(C34COC(C3)C4)n2)ncn1` [Example 750, N-(4-((2-(2-oxabicyclo[2.1.1]hexan-4-yl)-6-methylpyrimidin-4-yl)amino)-5-(6-methoxypyrimidin-4-yl)pyridin-2-yl)acetamide], the pIC50 on JH2 domain of human Tyk2 (setting [2]) was not below 8.00; at Tyk2, 6.00 to 7.00.
`COc1cnnc(-c2cnc(NC(C)=O)cc2Nc2cc(C)nc(C(C)(F)F)n2)c1` [Example 753, N-(4-((2-(1,1-difluoroethyl)-6-methylpyrimidin-4-yl)amino)-5-(5-methoxypyridazin-3-yl)pyridin-2-yl)acetamide]: the results for the negative logarithm of the IC50 (pIC50) at JH2 domain of human Tyk2 (setting [2]) and against Tyk2 were not below 8.00 and not above 6.00, respectively.
Regarding `COC(C)(C)c1cc(-c2cnc(NC(C)=O)cc2Nc2cc(C)nc(C(C)(F)F)n2)nn1C` [Example 758, N-(4-((2-(1,1-difluoroethyl)-6-methylpyrimidin-4-yl)amino)-5-(5-(2-methoxypropan-2-yl)-1-methyl-1H-pyrazol-3-yl)pyridin-2-yl)acetamide], the pIC50 at JH2 domain of human Tyk2 (setting [2]) and against Tyk2 was not below 8.00 throughout.
For `CC(=O)Nc1cc(Nc2cc(C)nc(C(C)(F)F)n2)c(-c2nc3n(n2)CCN(C)C3)cn1` [Example 759, N-(4-((2-(1,1-difluoroethyl)-6-methylpyrimidin-4-yl)amino)-5-(7-methyl-5,6,7,8-tetrahydro[1,2,4]triazolo[1,5-a]pyrazin-2-yl)pyridin-2-yl)acetamide], the figures for the negative-log IC50 (pIC50) on JH2 domain of human Tyk2 (setting [2]) and on Tyk2 were not below 8.00 and 7.00 to 8.00, respectively.
As to `CC(=O)Nc1cc(Nc2cc(C)nc(C(C)(F)F)n2)c(-c2nc3n(n2)CCOC3)cn1` [Example 760, N-(4-((2-(1,1-difluoroethyl)-6-methylpyrimidin-4-yl)amino)-5-(5,6-dihydrO8H-[1,2,4]triazolo[5,1-c][1,4]oxazin-2-yl)pyridin-2-yl)acetamide], the pIC50 on JH2 domain of human Tyk2 (setting [2]) is not below 8.00; at Tyk2, 7.00 to 8.00.
The like results for `CC(=O)Nc1cc(Nc2cc(C)nc(C(C)(F)F)n2)c(-c2ccsn2)cn1` [Example 761, N-(4-((2-(1,1-difluoroethyl)-6-methylpyrimidin-4-yl)amino)-5-(isothiazol-3-yl)pyridin-2-yl)acetamide] were, in that order, not below 8.00 and not above 6.00.
Regarding `COCc1nsc(-c2cnc(NC(C)=O)cc2Nc2cc(C)nc(C(C)(F)F)n2)n1` [Example 762, N-(4-((2-(1,1-difluoroethyl)-6-methylpyrimidin-4-yl)amino)-5-(3-(methoxymethyl)-1,2,4-thiadiazol-5-yl)pyridin-2-yl)acetamide], the negative-log IC50 (pIC50) on JH2 domain of human Tyk2 (setting [2]) and against Tyk2 was not below 8.00 each time.
Take `CC(=O)Nc1cc(Nc2cc(C)nc(C(C)(F)F)n2)c(-c2nsc(N(C)C)n2)cn1` [Example 763, N-(4-((2-(1,1-difluoroethyl)-6-methylpyrimidin-4-yl)amino)-5-(5-(dimethylamino)-1,2,4-thiadiazol-3-yl)pyridin-2-yl)acetamide]: the pIC50 was not below 8.00 on JH2 domain of human Tyk2 (setting [2]) and 6.00 to 7.00 at Tyk2.
In the case of `COCCc1cnn(-c2cnc(NC(C)=O)cc2Nc2cc(C)nc(C(C)(F)F)n2)c1` [Example 764, N-(4-((2-(1,1-difluoroethyl)-6-methylpyrimidin-4-yl)amino)-5-(4-(2-methoxyethyl)-1H-pyrazol-1-yl)pyridin-2-yl)acetamide], the pIC50 at JH2 domain of human Tyk2 (setting [2]) was not below 8.00; against Tyk2, 7.00 to 8.00.
As for `COCc1cnn(-c2cnc(NC(C)=O)cc2Nc2cc(C)nc(C(C)(F)F)n2)c1` [Example 765, N-(4-((2-(1,1-difluoroethyl)-6-methylpyrimidin-4-yl)amino)-5-(4-(methoxymethyl)-1H-pyrazol-1-yl)pyridin-2-yl)acetamide], the negative logarithm of the IC50 (pIC50) was not below 8.00 at JH2 domain of human Tyk2 (setting [2]) and 7.00 to 8.00 against Tyk2.
Turning to `CC(=O)Nc1cc(Nc2ccnc(C(C)(F)F)n2)c(-c2cncc(C#N)n2)cn1` [Example 766, N-(5-(6-cyanopyrazin-2-yl)-4-((2-(1,1-difluoroethyl)pyrimidin-4-yl)amino)pyridin-2-yl)acetamide], the pIC50 is not below 8.00 on JH2 domain of human Tyk2 (setting [2]) and 6.00 to 7.00 at Tyk2.
With `CC(=O)Nc1cc(Nc2ccnc(C(C)(F)F)n2)c(-c2cc(OC(F)F)ncn2)cn1` [Example 767, N-(4-((2-(1,1-difluoroethyl)pyrimidin-4-yl)amino)-5-(6-(difluoromethoxy)pyrimidin-4-yl)pyridin-2-yl)acetamide], the figures for the negative-log IC50 (pIC50) on JH2 domain of human Tyk2 (setting [2]) and against Tyk2 were not below 8.00 and 7.00 to 8.00, respectively.
In the case of `CC(=O)Nc1cc(Nc2cc(C)nc(C(C)(F)F)n2)c(-c2cn3c(n2)CCC3)cn1` [Example 769, N-(4-((2-(1,1-difluoroethyl)-6-methylpyrimidin-4-yl)amino)-5-(6,7-dihydrO5H-pyrrolo[1,2-a]imidazol-2-yl)pyridin-2-yl)acetamide], the pIC50 on JH2 domain of human Tyk2 (setting [2]) and against Tyk2 was not below 8.00 each time.
As for `CC(=O)Nc1cc(Nc2cc(C)nc(C(C)(F)F)n2)c(-c2cn3c(n2)OCC3)cn1` [Example 770, N-(4-((2-(1,1-difluoroethyl)-6-methylpyrimidin-4-yl)amino)-5-(2,3-dihydroimidazo[2,1-b]oxazol-6-yl)pyridin-2-yl)acetamide], the negative logarithm of the IC50 (pIC50) at JH2 domain of human Tyk2 (setting [2]) and on Tyk2 was not below 8.00 each time.
As to `CC(=O)Nc1cc(Nc2cc(C)nc(C(C)(F)F)n2)c(-c2csc(N3CCN(C)CC3)n2)cn1` [Example 771, N-(4-((2-(1,1-difluoroethyl)-6-methylpyrimidin-4-yl)amino)-5-(2-(4-methylpiperazin-1-yl)thiazol-4-yl)pyridin-2-yl)acetamide], the negative logarithm of the IC50 (pIC50) on JH2 domain of human Tyk2 (setting [2]) and at Tyk2 was not below 8.00 in each case.
As for `COCCN(C)c1nc(-c2cnc(NC(C)=O)cc2Nc2cc(C)nc(C(C)(F)F)n2)cs1` [Example 772, N-(4-((2-(1,1-difluoroethyl)-6-methylpyrimidin-4-yl)amino)-5-(2-((2-methoxyethyl)(methyl)amino)thiazol-4-yl)pyridin-2-yl)acetamide], the pIC50 at JH2 domain of human Tyk2 (setting [2]) and against Tyk2 was not below 8.00 each time.
For `COCCN(C)c1nnc(-c2cnc(NC(C)=O)cc2Nc2ccnc(C(C)(F)F)n2)s1` [Example 773, N-(4-((2-(1,1-difluoroethyl)pyrimidin-4-yl)amino)-5-(5-((2-methoxyethyl)(methyl)amino)-1,3,4-thiadiazol-2-yl)pyridin-2-yl)acetamide], the pIC50 on JH2 domain of human Tyk2 (setting [2]) and against Tyk2 was not below 8.00 each time.
As for `CC(=O)Nc1cc(Nc2ccnc(C(C)(F)F)n2)c(-c2nnc(N3CCN(C)CC3)s2)cn1` [Example 774, N-(4-((2-(1,1-difluoroethyl)pyrimidin-4-yl)amino)-5-(5-(4-methylpiperazin-1-yl)-1,3,4-thiadiazol-2-yl)pyridin-2-yl)acetamide], the negative-log IC50 (pIC50) on JH2 domain of human Tyk2 (setting [2]) and against Tyk2 was not below 8.00 in each case.
Consider `COCCOc1ccnc(-c2cnc(NC(C)=O)cc2Nc2cc(C)nc(C(C)(F)F)n2)n1` [Example 777, N-(4-((2-(1,1-difluoroethyl)-6-methylpyrimidin-4-yl)amino)-5-(4-(2-methoxyethoxy)pyrimidin-2-yl)pyridin-2-yl)acetamide], for which the pIC50 on JH2 domain of human Tyk2 (setting [2]) was 7.00 to 8.00; at Tyk2, not above 6.00.
